# Source: ChEMBL document CHEMBL1201862, “PubChem BioAssay data set” (2004)
# Activity calls are given as the source filed them. Rule as the data show it, for most assays here: actives have a measured EC50 and inactives only a lower limit.
# How the values were obtained:
# [1] = molecular target: T1, Sentrin-specific protease 8 (Homo sapiens, UniProt Q96LD8); assay: SENP8 protease inhibitors, SAR follow-up, biochemical, luminescence (AID 504501); format: functional
# T1 sequence (Q96LD8 whole entry): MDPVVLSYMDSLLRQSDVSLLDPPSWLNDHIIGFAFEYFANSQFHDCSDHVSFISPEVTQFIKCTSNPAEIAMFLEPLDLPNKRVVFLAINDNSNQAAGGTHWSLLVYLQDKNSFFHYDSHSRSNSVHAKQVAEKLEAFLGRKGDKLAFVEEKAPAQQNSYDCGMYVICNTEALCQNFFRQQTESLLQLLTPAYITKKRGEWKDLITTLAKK
# [2] = molecular target: T2, Sentrin-specific protease 6 (Homo sapiens, UniProt Q9GZR1); assay: SAR Analysis of small molecule inhibitors of Sentrin-specific protease 6 (SENP6) using a Luminescent assay. [Related pubchem assays (depositor defined):AID2582, AID2599]; format: functional
# T2 sequence (Q9GZR1 whole entry): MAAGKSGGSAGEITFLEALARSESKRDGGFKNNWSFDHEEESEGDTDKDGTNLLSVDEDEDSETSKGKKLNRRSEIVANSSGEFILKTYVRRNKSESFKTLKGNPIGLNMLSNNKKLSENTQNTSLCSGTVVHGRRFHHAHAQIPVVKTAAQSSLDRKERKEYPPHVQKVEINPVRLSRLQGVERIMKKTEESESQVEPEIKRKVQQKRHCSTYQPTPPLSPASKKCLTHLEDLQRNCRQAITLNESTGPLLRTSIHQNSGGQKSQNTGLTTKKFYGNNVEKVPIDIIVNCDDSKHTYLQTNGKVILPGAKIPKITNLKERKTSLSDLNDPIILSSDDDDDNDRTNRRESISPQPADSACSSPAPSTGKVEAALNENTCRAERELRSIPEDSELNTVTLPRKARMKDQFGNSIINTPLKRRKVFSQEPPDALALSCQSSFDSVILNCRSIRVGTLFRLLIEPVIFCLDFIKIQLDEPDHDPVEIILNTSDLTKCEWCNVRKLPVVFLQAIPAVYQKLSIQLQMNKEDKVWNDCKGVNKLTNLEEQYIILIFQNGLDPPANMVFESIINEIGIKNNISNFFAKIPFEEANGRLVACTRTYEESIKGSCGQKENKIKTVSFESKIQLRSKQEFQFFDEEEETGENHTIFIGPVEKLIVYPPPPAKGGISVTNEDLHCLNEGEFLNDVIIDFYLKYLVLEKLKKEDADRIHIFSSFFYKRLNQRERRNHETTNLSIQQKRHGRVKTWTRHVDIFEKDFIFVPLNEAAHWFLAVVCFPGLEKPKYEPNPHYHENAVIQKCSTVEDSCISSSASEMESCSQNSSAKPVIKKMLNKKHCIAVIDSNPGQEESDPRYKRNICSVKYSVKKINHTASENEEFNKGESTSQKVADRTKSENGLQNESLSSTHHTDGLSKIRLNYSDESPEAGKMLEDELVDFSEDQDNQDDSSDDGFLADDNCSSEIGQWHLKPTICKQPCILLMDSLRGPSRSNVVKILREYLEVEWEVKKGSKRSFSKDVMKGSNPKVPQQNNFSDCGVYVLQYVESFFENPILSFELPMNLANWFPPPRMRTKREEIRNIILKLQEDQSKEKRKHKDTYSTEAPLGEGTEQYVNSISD
# [3] = molecular target: T3, Sentrin-specific protease 7 (Homo sapiens, UniProt Q9BQF6); assay: SENP7 protease inhibitors, SAR follow-up, biochemical, luminescence (AID 504497); format: functional
# T3 sequence (Q9BQF6 whole entry): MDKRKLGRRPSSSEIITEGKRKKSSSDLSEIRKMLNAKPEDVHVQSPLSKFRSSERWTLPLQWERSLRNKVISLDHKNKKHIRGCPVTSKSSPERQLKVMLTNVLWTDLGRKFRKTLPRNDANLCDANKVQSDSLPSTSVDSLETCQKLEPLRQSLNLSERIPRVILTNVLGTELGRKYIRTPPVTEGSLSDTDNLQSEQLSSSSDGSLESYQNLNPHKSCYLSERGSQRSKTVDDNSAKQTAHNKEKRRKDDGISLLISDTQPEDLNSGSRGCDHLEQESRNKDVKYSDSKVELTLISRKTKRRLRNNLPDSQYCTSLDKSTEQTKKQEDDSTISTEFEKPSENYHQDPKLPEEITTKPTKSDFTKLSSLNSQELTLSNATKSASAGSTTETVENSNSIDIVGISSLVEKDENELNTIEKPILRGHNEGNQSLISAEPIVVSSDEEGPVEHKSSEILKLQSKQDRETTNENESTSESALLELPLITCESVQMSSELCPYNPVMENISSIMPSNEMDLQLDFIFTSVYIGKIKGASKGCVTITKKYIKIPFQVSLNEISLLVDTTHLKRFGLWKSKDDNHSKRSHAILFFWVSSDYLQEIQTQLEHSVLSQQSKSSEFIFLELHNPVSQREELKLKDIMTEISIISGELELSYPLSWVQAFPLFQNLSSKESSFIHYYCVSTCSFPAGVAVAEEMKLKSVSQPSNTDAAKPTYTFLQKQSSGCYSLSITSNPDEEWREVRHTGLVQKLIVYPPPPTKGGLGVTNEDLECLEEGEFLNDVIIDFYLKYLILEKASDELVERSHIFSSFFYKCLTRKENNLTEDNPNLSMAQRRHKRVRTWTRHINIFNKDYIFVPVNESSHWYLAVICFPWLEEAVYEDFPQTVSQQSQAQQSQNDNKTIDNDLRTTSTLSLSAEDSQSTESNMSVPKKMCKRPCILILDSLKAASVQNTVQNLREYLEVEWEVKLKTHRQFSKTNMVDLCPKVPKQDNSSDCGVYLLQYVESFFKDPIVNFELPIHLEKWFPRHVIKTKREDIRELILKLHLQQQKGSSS
# Caspase-3 = molecular target: T4, Caspase-3 (Homo sapiens, UniProt P42574); assay: SAR Analysis of small molecule inhibitors of Sentrin-specific proteases (SENPs) using a Caspase-3 Selectivity assay. [Related pubchem assays (depositor defined):AID2540, AID2599, AID434973, AID489001]; format: functional
# T4 sequence (P42574 whole entry): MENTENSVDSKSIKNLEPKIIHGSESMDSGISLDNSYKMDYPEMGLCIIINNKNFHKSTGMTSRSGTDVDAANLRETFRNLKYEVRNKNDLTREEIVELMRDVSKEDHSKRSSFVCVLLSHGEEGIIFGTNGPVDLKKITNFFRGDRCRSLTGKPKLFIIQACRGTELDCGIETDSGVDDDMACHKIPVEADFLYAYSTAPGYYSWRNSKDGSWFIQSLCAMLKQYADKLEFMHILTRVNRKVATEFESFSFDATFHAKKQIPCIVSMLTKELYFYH
# [4] = molecular target: T5, Sphingosine 1-phosphate receptor 4 (Homo sapiens, UniProt O95977); assay: Late-stage fluorescence-based dose-response cell-based counterscreen assay to identify agonists of the Sphingosine 1-Phosphate Receptor 3 (S1P3): Sphingosine 1-Phosphate Receptor 4 (S1P4) agonist assay.; format: functional
# T5 sequence (O95977 whole entry): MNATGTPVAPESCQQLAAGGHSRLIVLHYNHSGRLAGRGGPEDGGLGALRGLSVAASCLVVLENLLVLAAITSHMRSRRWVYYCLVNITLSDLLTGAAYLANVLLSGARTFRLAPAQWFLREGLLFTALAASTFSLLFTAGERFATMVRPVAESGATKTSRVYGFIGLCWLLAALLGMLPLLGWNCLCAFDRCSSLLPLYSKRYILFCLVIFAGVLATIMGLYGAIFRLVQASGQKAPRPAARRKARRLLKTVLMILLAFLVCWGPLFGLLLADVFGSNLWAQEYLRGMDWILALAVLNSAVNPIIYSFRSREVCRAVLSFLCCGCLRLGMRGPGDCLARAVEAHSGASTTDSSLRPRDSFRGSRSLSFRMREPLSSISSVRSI
# [5] = molecular target: Sphingosine 1-phosphate receptor 2 (Homo sapiens, UniProt O95136); assay: Late-stage fluorescence-based dose-response cell-based counterscreen assay to identify agonists of the Sphingosine 1-Phosphate Receptor 3 (S1P3): Sphingosine 1-Phosphate Receptor 2 (S1P2) agonist assay.; format: functional
# Aurora kinase A = Aurora kinase A (Homo sapiens, UniProt O14965); format: functional;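 also: value from the Navigating the Kinome kinase panel profiling, panel entry STK6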
# [6] = molecular target: High affinity nerve growth factor receptor (Homo sapiens, UniProt P04629); format: functional;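 also: NTRK1 tested as one member of a kinome-wide profiling panel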
# [7] = molecular target: Latent membrane protein 1 (Human herpesvirus 4 (strain B95-8), UniProt P03230); assay: TES1-eGFP NF-kB reporter inhibition versus Tet-On dsRED, dose response, selectivity assay for LMP1 NF-kB inhibitor project, imaging, HEK293T, dual-color eGFP/dsRED, cherry-picks (AID 588398); format: functional, cell-based
# BJ [8] = assay: cytotoxicity toward BJ-TERT fibroblasts, dose response, cell-based, RAS-independent, luminescence (AID 1933); format: functional; conditions: Homo sapiens
# BJ [9] = assay: cytotoxicity toward BJ-TERT-LT-ST fibroblasts, dose response, cell-based, RAS-independent, luminescence (AID 1935); format: functional; conditions: Homo sapiens;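 also: BJ fibroblasts immortalized with TERT plus LT and ST oncogenes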
# [10] = insulin promoter down-regulators in MIN6 cells, imaging, high-content screening, mouse beta cells (AID 1628); format: functional
# Vero [11] = assay: host cell cytotoxicity of antiviral hits, dose response, cytotoxicity control for West Nile virus antiviral project, secondary assay (AID 1650); format: functional; conditions: Chlorocebus sabaeus
# Streptococcus = assay: Group A Streptococcus viability loss, dose response, counter-screen for streptokinase expression inhibitor project, luminescence, BacTiterGlo (AID 1915); format: functional, organism-based;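 also: potency for reduction of bacterial viability or growth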
# Vero [12] = assay: cells; format: functional; conditions: Chlorocebus sabaeus
# [13] = cytotoxicity toward DRD oncogenic fibroblasts, dose response, cell-based, non-viral oncogenic, luminescence (AID 1934); format: functional; conditions: Homo sapiens
# [14] = Luminescence Cell-Based Dose Response HTS to Identify Inhibitors of 5'UTR Stem-Loop Driven Prion Protein mRNA Translation in H4 Neuroglioblastoma Cells. [Related pubchem assays: 1827 (Project Summary), 1813 (Primary HTS)]; format: functional
# cells [15] = format: functional, cell-based
# [16] = cytotoxicity in MIN6 insulinoma cells, dose response, cytotoxicity control, cell-based, mouse insulinoma (AID 2122); format: functional;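 also: confirmatory high-throughput counterscreen run to flag cytotoxic compounds; mouse MIN-6 beta cells carrying an insulin promoter eGFP reporter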
# [17] = NIH-3T3 fibroblast cytotoxicity, dose response, cytotoxicity control, cell-based, fluorescence, Alamar Blue, secondary assay (AID 2327); format: functional;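 also: NIH-3T3 mouse fibroblasts cultured with fluconazole at 8 µg/mL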
# [18] = inhibitors of firefly luciferase expression or activity, dose response, H4 neuroglioma cells, luminescence (AID 1990); format: functional, cell-based
# BJ [19] = assay: cytotoxicity toward Ras-transformed BJeLR fibroblasts, dose response, cell-based, alamar blue fluorescence, cherrypicked samples (AID 2631); format: functional; conditions: Homo sapiens;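 also: confirmatory dose-response assay in RAS-dependent BJ fibroblasts engineered with TERT, LT and ST, with cytotoxicity read by fluorescence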
# cells [20] = format: functional, cell-based; remark: listed apart in the source
# [21] = inhibitors of SNCA 5'UTR-driven reporter translation, confirmation, H4 neuroglioma cells, luminescence (AID 1988); format: functional, cell-based
# [22] = C. albicans growth with fluconazole, confirmation, fluorescence, retest (AID 2467); format: functional, cell-based
# BJ [23] = assay: cells; format: functional, cell-based; conditions: Homo sapiens
# [24] = test system: Streptococcus sp. 'group A'; assay: growth inhibition of control SK(-) GAS strain, dose response, counter-screen for streptokinase expression inhibitor project, luminescence, kanamycin, BacTiterGlo, confirmation (AID 1900); format: functional, organism-based
# Sequence of Sphingosine 1-phosphate receptor 2 (O95136 whole entry): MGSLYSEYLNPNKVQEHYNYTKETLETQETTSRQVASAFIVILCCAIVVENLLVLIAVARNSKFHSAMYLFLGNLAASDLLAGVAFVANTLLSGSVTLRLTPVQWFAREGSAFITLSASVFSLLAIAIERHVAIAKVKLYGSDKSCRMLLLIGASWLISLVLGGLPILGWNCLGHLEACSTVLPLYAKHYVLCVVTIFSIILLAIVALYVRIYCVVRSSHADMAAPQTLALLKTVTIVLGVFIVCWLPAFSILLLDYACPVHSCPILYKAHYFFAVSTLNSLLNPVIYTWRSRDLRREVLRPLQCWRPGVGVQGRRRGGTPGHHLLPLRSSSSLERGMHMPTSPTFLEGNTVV
# Sequence of Aurora kinase A (O14965 whole entry): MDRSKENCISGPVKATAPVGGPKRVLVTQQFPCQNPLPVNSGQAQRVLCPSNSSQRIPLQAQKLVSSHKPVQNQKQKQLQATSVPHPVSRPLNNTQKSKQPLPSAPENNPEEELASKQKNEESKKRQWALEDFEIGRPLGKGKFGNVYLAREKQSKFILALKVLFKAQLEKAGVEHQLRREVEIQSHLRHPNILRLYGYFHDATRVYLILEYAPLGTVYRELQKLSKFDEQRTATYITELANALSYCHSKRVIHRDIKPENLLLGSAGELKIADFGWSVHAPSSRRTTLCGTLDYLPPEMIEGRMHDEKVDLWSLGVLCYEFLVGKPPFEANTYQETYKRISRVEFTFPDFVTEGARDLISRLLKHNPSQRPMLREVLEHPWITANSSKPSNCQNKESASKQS
# Sequence of High affinity nerve growth factor receptor (P04629 whole entry): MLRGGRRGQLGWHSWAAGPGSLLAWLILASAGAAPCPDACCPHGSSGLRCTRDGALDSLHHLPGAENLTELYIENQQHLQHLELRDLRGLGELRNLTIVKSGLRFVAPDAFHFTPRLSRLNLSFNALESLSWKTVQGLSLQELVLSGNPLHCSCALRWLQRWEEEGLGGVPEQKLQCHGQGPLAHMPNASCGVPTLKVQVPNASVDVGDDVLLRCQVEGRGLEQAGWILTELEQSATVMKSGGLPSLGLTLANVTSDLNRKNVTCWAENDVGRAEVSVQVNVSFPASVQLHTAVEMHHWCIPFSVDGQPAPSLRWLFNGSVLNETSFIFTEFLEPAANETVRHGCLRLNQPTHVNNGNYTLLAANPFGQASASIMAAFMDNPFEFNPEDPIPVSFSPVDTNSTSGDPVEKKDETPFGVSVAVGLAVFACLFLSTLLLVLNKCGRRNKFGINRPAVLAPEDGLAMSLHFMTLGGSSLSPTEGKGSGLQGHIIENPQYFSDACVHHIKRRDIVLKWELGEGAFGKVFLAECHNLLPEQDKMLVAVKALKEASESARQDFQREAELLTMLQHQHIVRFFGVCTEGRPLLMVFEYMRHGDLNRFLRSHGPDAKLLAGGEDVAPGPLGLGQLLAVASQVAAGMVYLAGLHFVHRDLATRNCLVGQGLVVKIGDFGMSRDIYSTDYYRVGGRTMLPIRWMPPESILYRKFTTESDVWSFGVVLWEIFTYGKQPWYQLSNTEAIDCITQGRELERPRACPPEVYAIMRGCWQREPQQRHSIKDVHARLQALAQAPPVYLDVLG
# Sequence of Latent membrane protein 1 (P03230 whole entry): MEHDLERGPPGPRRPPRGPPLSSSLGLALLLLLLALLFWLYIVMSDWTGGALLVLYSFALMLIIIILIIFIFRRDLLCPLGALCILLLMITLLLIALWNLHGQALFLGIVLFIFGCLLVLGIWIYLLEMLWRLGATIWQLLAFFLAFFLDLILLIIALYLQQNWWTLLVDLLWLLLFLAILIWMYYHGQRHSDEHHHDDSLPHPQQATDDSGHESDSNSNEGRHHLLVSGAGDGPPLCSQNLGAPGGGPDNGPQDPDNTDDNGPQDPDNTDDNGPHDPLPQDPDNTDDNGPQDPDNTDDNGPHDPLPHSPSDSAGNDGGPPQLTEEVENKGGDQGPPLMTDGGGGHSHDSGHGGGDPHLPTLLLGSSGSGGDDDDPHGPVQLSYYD
compound,measurement,setting,value
CN(C)CCN(C(=O)c1ccc(Cl)s1)c1nc2ccc(S(C)(=O)=O)cc2s1,IC50,[1],> 99 µM (inactive)
same,IC50,[2],> 99 µM (inactive)
same,IC50,[3],> 99 µM (inactive)
same,IC50,Caspase-3,> 99 µM (inactive)
CCOc1ccc(-c2nc(C(=O)N(C3CCCCC3)C3CCCCC3)co2)cc1OCC,EC50,[4],> 50 µM (inactive)
same,EC50,[5],> 50 µM (inactive)
CCOC(=O)C(C(N)=O)C(=S)Nc1ccc(C)cc1 (configuration not stated),Ki,Aurora kinase A,0.0501 µM (active)
same,Ki,[6],5.01 µM (active)
CCN(CC)c1ccc(/C=N/Nc2nc3ccccc3[nH]2)c(O)c1,AC50,[7],17.4 µM (active)
same,EC50,BJ [8],1.22 µM (active)
same,EC50,BJ [9],1.37 µM (inconclusive)
same,IC50,[10],2.45 µM (active)
same,CC50,Vero [11],2.03 µM (active)
same,EC50,Streptococcus,7.8 µM (active)
same,CC50,Vero [12],1.59 µM (active)
same,EC50,[13],1.37 µM (inconclusive)
same,EC50,[14],8.71 µM (active)
same,EC50,cells [15],2.56 µM (active)
same,IC50,[16],2.51 µM (active)
same,EC50,[17],22.6 µM (inconclusive)
same,EC50,[18],6.26 µM (active)
same,EC50,BJ [19],0.571 µM (inconclusive)
same,EC50,cells [20],115 µM (active)
same,EC50,[21],2.64 µM (active)
same,EC50,[22],1.42 µM (active)
same,EC50,BJ [23],2.15 µM (active)
same,EC50,[24],4.47 µM (active)
